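Test compounds were applied to cells in 96-well plates for 48 hours at 5 doses. TGI denotes the concentration required for complete inhibition of growth.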
Legend:
Assay in all cases: NCI tumour cell line growth inhibition, 48 h
[1] = system: DMS 114 small cell lung
[2] = system: DMS 273 small cell lung
[3] = system: HOP-18 NSCLC
[4] = system: KM20L2 colon
[5] = system: LXFL 529 NSCLC
[6] = system: M19-MEL melanoma
[7] = system: RXF-631 renal
[8] = system: P388 leukemia
[9] = system: P388/ADR leukemia
[10] = system: SN12K1 renal

NC(CNc1ccc(O)cc1)C(=O)O (stereo not drawn)
TGI [1]: > 100 µM
TGI [2]: > 100 µM
TGI [3]: > 100 µM
TGI [4]: > 100 µM
TGI [5]: > 100 µM
TGI [6]: 86.3 µM
TGI [7]: > 100 µM

Cc1oc2c(C)c3oc(=O)cc(C)c3cc2c1CN
TGI [1]: > 100 µM
TGI [3]: > 100 µM
TGI [4]: > 100 µM
TGI [5]: > 100 µM
TGI [6]: > 100 µM
TGI [7]: 90.4 µM

CCCN(CCC)c1c([N+](=O)[O-])cc(C(=O)N(C)C)cc1[N+](=O)[O-]
TGI [1]: > 100 µM
TGI [2]: > 100 µM
TGI [5]: > 100 µM
TGI [6]: > 100 µM

O=c1cc2cc(O)[nH]c(=O)c2c(O)[nH]1
TGI [1]: > 100 µM
TGI [2]: > 100 µM
TGI [4]: > 100 µM
TGI [5]: > 100 µM
TGI [6]: > 100 µM
TGI [7]: > 100 µM

Cc1ccc(Nc2ccc(Nc3ccc(C)cc3S(=O)(=O)O)c3c2C(=O)c2ccccc2C3=O)c(S(=O)(=O)O)c1
TGI [1]: > 100 µM
TGI [2]: > 100 µM
TGI [3]: > 100 µM
TGI [4]: > 100 µM
TGI [5]: > 100 µM
TGI [7]: > 100 µM

CC(C)(Oc1ccc(C(=O)c2ccc(Cl)cc2)cc1Cl)C(=O)N1CCN(c2ccccc2)CC1
TGI [1]: > 100 µM
TGI [2]: > 100 µM
TGI [3]: > 100 µM
TGI [4]: > 100 µM
TGI [5]: > 100 µM
TGI [6]: > 100 µM

CC(=O)OC1C(O)C(C)OC(OC(=O)C2CCC3C(C2)OC2(CC(OC(=O)/C=C/c4ccccc4)C(C)CO2)C32CO2)C1OC1OC(C)C(O)C(O)C1O (stereo not drawn)
TGI [1]: 0.0563 µM
TGI [2]: 0.151 µM
TGI [3]: 0.585 µM
TGI [4]: 1.42 µM
TGI [6]: 0.0497 µM
TGI [8]: 1.39 µM
TGI [9]: 113 µM
TGI [10]: 0.0828 µM
